According to ChEMBL document CHEMBL4004803, “Syntheses and antibacterial activity of soluble 9-bromo substituted indolizinoquinoline-5,12-dione derivatives” (Eur J Med Chem, 2017):
Converted amounts (≈) assume the structure as drawn.

How the values were obtained:
Type in all cases: functional
[1] = test system: Staphylococcus aureus; assay: Antibacterial activity against […] Staphylococcus aureus ATCC 25923 after 20 to 24 hrs by two-fold microdilution method
[2] = test system: Escherichia coli; assay: Antibacterial activity against Escherichia coli ATCC 25922 after 20 to 24 hrs by two-fold microdilution method
[3] = test system: Streptococcus pyogenes; assay: Antibacterial activity against Streptococcus pyogenes ATCC 19615 after 20 to 24 hrs by two-fold microdilution method
[4] = test system: Staphylococcus aureus; assay: Antibacterial activity against methicillin-resistant Staphylococcus aureus ATCC 43300 after 20 to 24 hrs by two-fold microdilution method
[5] = test system: Staphylococcus haemolyticus; assay: Antibacterial activity against Staphylococcus haemolyticus CICC 10373 after 20 to 24 hrs by two-fold microdilution method
[6] = test system: Streptococcus pneumoniae; assay: Antibacterial activity against Streptococcus pneumoniae ATCC 6305 after 20 to 24 hrs by two-fold microdilution method
[7] = test system: Enterococcus faecalis; assay: Antibacterial activity against Enterococcus faecalis ATCC 29212 after 20 to 24 hrs by two-fold microdilution method
[8] = test system: Staphylococcus epidermidis; assay: Antibacterial activity against Staphylococcus epidermidis ATCC 12228 after 20 to 24 hrs by two-fold microdilution method
[9] = test system: Staphylococcus aureus; assay: Antibacterial activity against methicillin-resistant Staphylococcus aureus clinical isolate after 20 to 24 hrs by two-fold microdilution method
[10] = test system: Staphylococcus aureus; assay: Antibacterial activity against methicillin-resistant Staphylococcus aureus 1216052 clinical isolate after 20 to 24 hrs by two-fold microdilution method
[11] = test system: Staphylococcus aureus; assay: Antibacterial activity against methicillin-resistant Staphylococcus aureus 1106003 clinical isolate after 20 to 24 hrs by two-fold microdilution method
[12] = test system: Staphylococcus aureus; assay: Antibacterial activity against methicillin-resistant Staphylococcus aureus 111423 clinical isolate after 20 to 24 hrs by two-fold microdilution method
[13] = test system: Staphylococcus aureus; assay: Antibacterial activity against methicillin-resistant Staphylococcus aureus 1103006 clinical isolate after 20 to 24 hrs by two-fold microdilution method
[14] = test system: Staphylococcus aureus; assay: Antibacterial activity against methicillin-resistant Staphylococcus aureus 1026021 clinical isolate after 20 to 24 hrs by two-fold microdilution method

Structure (SMILES) | MIC [1] [mg/L] | MIC [2] [mg/L] | MIC [3] [mg/L] | MIC [4] [mg/L] | MIC [5] [mg/L] | MIC [6] [mg/L] | MIC [7] [mg/L] | MIC [8] [mg/L] | MIC50 [9] [mg/L] | MIC90 [9] [mg/L] | MIC [10] [mg/L] | MIC [11] [mg/L] | MIC [12] [mg/L] | MIC [13] [mg/L] | MIC [14] [mg/L]
CCOC(=O)c1c2c(n3cc(Br)ccc13)C(=O)c1ncccc1C2=O | 0.063 (≈ 0.158 µM) | > 16 | 4 (≈ 10 µM) | 0.063 (≈ 0.158 µM) | 0.125 (≈ 0.313 µM) | 4 (≈ 10 µM) | 0.016 (≈ 0.0401 µM) | 0.063 (≈ 0.158 µM) |  |  |  |  |  |  | 
CN(C)CCCCOC(=O)c1c2c(n3cc(Br)ccc13)C(=O)c1ncccc1C2=O | 4 (≈ 8.5 µM) | 1 (≈ 2.13 µM) | 16 (≈ 34 µM) | 2 (≈ 4.25 µM) | 4 (≈ 8.5 µM) | 8 (≈ 17 µM) | 2 (≈ 4.25 µM) | 0.25 (≈ 0.532 µM) |  |  |  |  |  |  | 
CN(C)CCCOC(=O)c1c2c(n3cc(Br)ccc13)C(=O)c1ncccc1C2=O | 1 (≈ 2.19 µM) | 1 (≈ 2.19 µM) | 16 (≈ 35.1 µM) | 1 (≈ 2.19 µM) | 2 (≈ 4.38 µM) | 8 (≈ 17.5 µM) | 2 (≈ 4.38 µM) | 0.25 (≈ 0.548 µM) |  |  |  |  |  |  | 
CCOC(=O)c1c2c(n3cccc(Br)c13)C(=O)c1nccnc1C2=O | 1 (≈ 2.5 µM) | > 16 |  |  |  |  |  |  |  |  |  |  |  |  | 
CCOC(=O)c1c2c(n3cc(Br)ccc13)C(=O)c1nccnc1C2=O | 0.25 (≈ 0.625 µM) | 16 (≈ 40 µM) |  |  |  |  |  |  |  |  |  |  |  |  | 
O=C1c2cccnc2C(=O)c2c1c(C(=O)OCCCN1CCOCC1)c1ccc(Br)cn21 | 0.5 (≈ 1 µM) | 16 (≈ 32.1 µM) | 16 (≈ 32.1 µM) | 0.5 (≈ 1 µM) | 4 (≈ 8.03 µM) | 16 (≈ 32.1 µM) | 2 (≈ 4.01 µM) | 0.25 (≈ 0.502 µM) |  |  |  |  |  |  | 
COP(=O)(CCOC(=O)c1c2c(n3cc(Br)ccc13)C(=O)c1ncccc1C2=O)OC | 1 (≈ 1.97 µM) | 16 (≈ 31.5 µM) | 16 (≈ 31.5 µM) | 1 (≈ 1.97 µM) | 1 (≈ 1.97 µM) | 16 (≈ 31.5 µM) | 0.5 (≈ 0.986 µM) | 0.5 (≈ 0.986 µM) |  |  |  |  |  |  | 
CN(C)CCCCCCOC(=O)c1c2c(n3cc(Br)ccc13)C(=O)c1ncccc1C2=O | 0.25 (≈ 0.502 µM) | 2 (≈ 4.01 µM) | 8 (≈ 16.1 µM) | 0.25 (≈ 0.502 µM) | 0.5 (≈ 1 µM) | 2 (≈ 4.01 µM) | 0.5 (≈ 1 µM) | ≤ 0.0078 |  |  |  |  |  |  | 
O=C1c2cccnc2C(=O)c2c1c(C(=O)OCCCO)c1ccc(Br)cn21 | 0.125 (≈ 0.291 µM) | 8 (≈ 18.6 µM) | 8 (≈ 18.6 µM) | 0.25 (≈ 0.582 µM) | 0.25 (≈ 0.582 µM) | 8 (≈ 18.6 µM) | 0.25 (≈ 0.582 µM) | 0.125 (≈ 0.291 µM) |  |  |  |  |  |  | 
O=C1c2cccnc2C(=O)c2c1c(C(=O)OCCCN1CCCC1)c1ccc(Br)cn21 | 2 (≈ 4.15 µM) | 0.5 (≈ 1.04 µM) | 8 (≈ 16.6 µM) | 1 (≈ 2.07 µM) | 2 (≈ 4.15 µM) | 4 (≈ 8.29 µM) | 1 (≈ 2.07 µM) | 0.25 (≈ 0.518 µM) |  |  |  |  |  |  | 
CN1CCN(CCCCOC(=O)c2c3c(n4cc(Br)ccc24)C(=O)c2ncccc2C3=O)CC1 | 0.25 (≈ 0.476 µM) | 8 (≈ 15.2 µM) | 8 (≈ 15.2 µM) | 0.5 (≈ 0.952 µM) | 1 (≈ 1.9 µM) | 2 (≈ 3.81 µM) | 0.5 (≈ 0.952 µM) | 0.031 (≈ 0.059 µM) |  |  |  |  |  |  | 
O=C1c2cccnc2C(=O)c2c1c(C(=O)OCCN1CCCC1)c1ccc(Br)cn21 | 0.5 (≈ 1.07 µM) | 0.5 (≈ 1.07 µM) | 8 (≈ 17.1 µM) | 0.5 (≈ 1.07 µM) | 0.5 (≈ 1.07 µM) | 4 (≈ 8.54 µM) | 0.5 (≈ 1.07 µM) | 0.031 (≈ 0.0662 µM) |  |  |  |  |  |  | 
CN1CCN(CCCCCOC(=O)c2c3c(n4cc(Br)ccc24)C(=O)c2ncccc2C3=O)CC1 | 0.25 (≈ 0.463 µM) | 2 (≈ 3.71 µM) | 8 (≈ 14.8 µM) | 0.25 (≈ 0.463 µM) | 0.25 (≈ 0.463 µM) | 2 (≈ 3.71 µM) | 0.25 (≈ 0.463 µM) | ≤ 0.0078 |  |  |  |  |  |  | 
O=C1c2cccnc2C(=O)c2c1c(C(=O)OCCCCCCN1CCCC1)c1ccc(Br)cn21 | 0.5 (≈ 0.953 µM) | 1 (≈ 1.91 µM) | 4 (≈ 7.63 µM) | 0.5 (≈ 0.953 µM) | 2 (≈ 3.81 µM) | 1 (≈ 1.91 µM) | 0.5 (≈ 0.953 µM) | ≤ 0.0078 |  |  |  |  |  |  | 
O=C1c2cccnc2C(=O)c2c1c(C(=O)OCCCCN1CCCCC1)c1ccc(Br)cn21 | 1 (≈ 1.96 µM) | 4 (≈ 7.84 µM) | 16 (≈ 31.3 µM) | 1 (≈ 1.96 µM) | 2 (≈ 3.92 µM) | 4 (≈ 7.84 µM) | 1 (≈ 1.96 µM) | 0.125 (≈ 0.245 µM) |  |  |  |  |  |  | 
O=C1c2cccnc2C(=O)c2c1c(C(=O)OCCCN1CCCCC1)c1ccc(Br)cn21 | 4 (≈ 8.06 µM) | 8 (≈ 16.1 µM) | 16 (≈ 32.2 µM) | 4 (≈ 8.06 µM) | 2 (≈ 4.03 µM) | 16 (≈ 32.2 µM) | 4 (≈ 8.06 µM) | 0.5 (≈ 1.01 µM) |  |  |  |  |  |  | 
O=C1c2cccnc2C(=O)c2c1c(C(=O)OCCCCCN1CCCCC1)c1ccc(Br)cn21 | 1 (≈ 1.91 µM) | 4 (≈ 7.63 µM) | 8 (≈ 15.3 µM) | 2 (≈ 3.81 µM) | 1 (≈ 1.91 µM) | 4 (≈ 7.63 µM) | 0.5 (≈ 0.953 µM) | 0.125 (≈ 0.238 µM) |  |  |  |  |  |  | 
O=C1c2cccnc2C(=O)c2c1c(C(=O)OCC(O)CO)c1ccc(Br)cn21 (configuration not stated) | 2 (≈ 4.49 µM) | 4 (≈ 8.98 µM) | 16 (≈ 35.9 µM) | 2 (≈ 4.49 µM) | 4 (≈ 8.98 µM) | 16 (≈ 35.9 µM) | > 16 | 1 (≈ 2.25 µM) |  |  |  |  |  |  | 
O=C1c2cccnc2C(=O)c2c1c(C(=O)OCCO)c1ccc(Br)cn21 | 0.125 (≈ 0.301 µM) | 4 (≈ 9.63 µM) | 8 (≈ 19.3 µM) | 0.125 (≈ 0.301 µM) | 0.5 (≈ 1.2 µM) | 8 (≈ 19.3 µM) | 0.25 (≈ 0.602 µM) | 0.125 (≈ 0.301 µM) |  |  |  |  |  |  | 
CN1CCN(CCCOC(=O)c2c3c(n4cc(Br)ccc24)C(=O)c2ncccc2C3=O)CC1 | 8 (≈ 15.6 µM) | > 16 | 16 (≈ 31.3 µM) | 4 (≈ 7.82 µM) | 16 (≈ 31.3 µM) | 16 (≈ 31.3 µM) | > 16 | 4 (≈ 7.82 µM) |  |  |  |  |  |  | 
O=C1c2cccnc2C(=O)c2c1c(C(=O)OCCCCN1CCCC1)c1ccc(Br)cn21 | 2 (≈ 4.03 µM) | 1 (≈ 2.01 µM) | 8 (≈ 16.1 µM) | 1 (≈ 2.01 µM) | 4 (≈ 8.06 µM) | 4 (≈ 8.06 µM) | 1 (≈ 2.01 µM) | 0.125 (≈ 0.252 µM) |  |  |  |  |  |  | 
CN1CCN(CCOC(=O)c2c3c(n4cc(Br)ccc24)C(=O)c2ncccc2C3=O)CC1 | 2 (≈ 4.02 µM) | 1 (≈ 2.01 µM) | 8 (≈ 16.1 µM) | 2 (≈ 4.02 µM) | 8 (≈ 16.1 µM) | 16 (≈ 32.2 µM) | 8 (≈ 16.1 µM) | 1 (≈ 2.01 µM) |  |  |  |  |  |  | 
O=C1c2cccnc2C(=O)c2c1c(C(=O)OCCCCCN1CCCC1)c1ccc(Br)cn21 | 0.5 (≈ 0.98 µM) | 2 (≈ 3.92 µM) | 8 (≈ 15.7 µM) | 0.5 (≈ 0.98 µM) | 0.25 (≈ 0.49 µM) | 1 (≈ 1.96 µM) | 0.5 (≈ 0.98 µM) | ≤ 0.0078 |  |  |  |  |  |  | 
CC1(C)S[C@@H]2[C@H](NC(=O)Cc3ccccc3)C(=O)N2[C@H]1C(=O)O [PENICILLIN G] | 0.063 (≈ 0.188 µM) | > 16 | ≤ 0.0078 | > 16 | ≤ 0.0078 | ≤ 0.0078 | 1 (≈ 2.99 µM) | 8 (≈ 23.9 µM) |  |  |  |  |  |  | 
CN[C@H](CC(C)C)C(=O)N[C@H]1C(=O)N[C@@H](CC(N)=O)C(=O)N[C@H]2C(=O)N[C@H]3C(=O)N[C@H](C(=O)N[C@H](C(=O)O)c4cc(O)cc(O)c4-c4cc3ccc4O)[C@H](O)c3ccc(c(Cl)c3)Oc3cc2cc(c3O[C@@H]2O[C@H](CO)[C@@H](O)[C@H](O)[C@H]2O[C@H]2C[C@](C)(N)[C@H](O)[C@H](C)O2)Oc2ccc(cc2Cl)[C@H]1O [VANCOMYCIN] |  |  |  |  |  |  |  |  | 1 (≈ 0.69 µM) | 2 (≈ 1.38 µM) | > 16 | > 16 | > 16 | > 16 | 16 (≈ 11 µM)
